The record followed here is US20040019022A1, “Use of 2,3 alkylcarbonyloxybenzoic acids, derivatives and analogues therefrom in the treatment of tissue and cellular dysfunction, damage and injury in mammals” (priority 2002, published 2004).

SMILES strings stand for the structures.

Assay [1] deals with guinea pigs administered aerosolized LPS. Description: Aerosolized LPS exposure in guinea pigs, bronchoalveolar lavage (BAL) 24 h after LPS. The assay is classed as in vivo. The note with it: guinea pig. On the procedure:
The potential therapeutic effect of 2,3-alkylcarbonyloxybenzoic acids is exemplified by data generated in the study of 2,3-diacetoxybenzoic acid in guinea pigs. 2,3-diacetoxybenzoic acid was administered via intra-peritoneal injection to guinea pigs administered aerosolized LPS. Each animal was treated with 150 mg/kg of 2,3-diacetoxybenzoic acid or vehicle 1 hour prior to and 4 hours following LPS administration. Twenty four hours following administration of LPS, bronchoalveolar lavage (BAL) was performed. Intra-peritoneal administration of 2,3-diacetoxybenzoic acid appeared to have no effect on LPS-induced neutrophil recruitment into the lung. However, 2,3-diacetoxybenzoic acid treatment did produce a statistically significant reduction in albumin leakage (44%), a component of LPS-induced edema formation indicating a decrease in lung vascular permeability.

Assay [2] concerns rat model of cecal ligation and perforation (CLP)-induced sepsis. Description: Awake rat model of cecal ligation and perforation (CLP)-induced sepsis, acute lung injury. It is filed as in vivo. The text has this:
An awake rat model of cecal ligation and perforation (CLP)-induced sepsis was employed to examine the therapeutic effect of 2,3-diacetoxybenzoic acid in sepsis induced acute lung injury. Oxidative stress resulting in increased lung permeability is characteristic of the onset and progression of acute lung injury in this model. […] 2,3-Diacetoxybenzoic acid treated animals appeared to have improvement in sepsis-associated symptoms such as lethargy, diarrhea, anorexia, and abdomenal distention.

Where [3] appears, read: 150 mg/kg i.p. 1 h prior to and 4 h post LPS, BAL 24 h after LPS, mean ± SEM, n = 5.
[4] abbreviates: 2.5 mg/kg/h continuous infusion.
Setting [5] is: 2.5 mg/kg/h continuous infusion from 1 h to 24 h after induction of sepsis, 24 hours, mean ± SEM.

With `CC(=O)Oc1cccc(C(=O)O)c1OC(C)=O` [DABA, 2,3-diacetoxybenzoic acid], the “effect on LPS-induced neutrophil recruitment into the lung” value in assay [1] (150 mg/kg i.p. 1 h prior to and 4 h following LPS) is given as “no effect”. In assay [1] (150 mg/kg i.p. 1 h prior to and 4 h following LPS, versus vehicle, statistically significant), the “reduction in albumin leakage” value was 44%. Further, in assay [1] (setting [3]), the “Albumin (BAL fluid)” value came out at 605 ± 78 μg/mL BALF, the “Neutrophil (BAL fluid)” value is 80 ± 11 ×10^6/mL BALF and the “Total Cell (BAL fluid)” value is on record as 112 ± 14 ×10^6/mL BALF. Besides, in assay [2] (setting [4]), the body temperature result is “normalized”; the cardiac output entry is recorded as “normalized”; the respiratory rate entry is “normalized”; the “sepsis-associated symptoms such as lethargy, diarrhea, anorexia, and abdomenal distention” value is reported as “improvement”. The “lung microvascular permeability increases” value in assay [2] (2.5 mg/kg/h continuous infusion from 1 h to 24 h after induction of sepsis) is “reduced”. In addition, the “Systemic WBC, 1 hour” value in assay [2] (2.5 mg/kg/h continuous infusion from 1 h to 24 h after induction of sepsis, 1 hour, mean ± SEM) is 6.7 ± 1.1 ×10^9/liter. Further, in assay [2] (setting [5]), the “BAL WBC, 24 hours” value is reported as 0.04 ± 0.02 ×10^9/liter; the “BAL protein, 24 hours” value came to 1.45 ± 1.73 mg/dL; the “Systemic WBC, 24 hours” value is listed as 3.6 ± 1.4 ×10^9/liter.
